Test results reported in paper PMC5985520 (Molecular bioSystems, 2009).
Read-outs that look alike come from different tables or passages of the source.

Target: C2 domain of PKCα (Homo sapiens, UniProt P17252)
Assay: SPR equilibrium binding of PKCα-C2 to lipid vesicles containing PA derivatives

For `CCCCCCCC/C=C\CCCCCCCC(=O)O[C@H](COC(=O)CCCCCCCCCCCCCCC)COP(=O)(O)O` [POPA, 1-palmitoyl-2-oleoyl-sn-glycero-3-phosphatidic acid], which Kd (read-out: Kd (dissociation constant for binding of PKCα-C2 to vesicles containing PA derivative), POPC:POPE:PA (40:40:20) vesicles, 20 mol% PA, L1 chip, 25°C, 25 mM Tris HCl pH 7.4, 150 mM NaCl, 1 mM CaCl2, 1 mM DTT) is on record?
Its Kd is 440 ± 50 nM.

What about the Kd (read-out: Kd (dissociation constant for binding of PKCα-C2 to vesicles containing PA derivative), POPC:POPE:PA (55:40:5) vesicles, 5 mol% PA, L1 chip, 25°C, 25 mM Tris HCl pH 7.4, 150 mM NaCl, 1 mM CaCl2, 1 mM DTT) of the same compound?
The Kd was 490 ± 90 nM.
